Experimental data as given in patent publication US9522141B2, “Indazole compounds as aldosterone synthase inhibitors” (Merck Sharp & Dohme Corp., priority 2012, dated 2016).

How the values were obtained:
human CYP11B1 = target: T1, human CYP11B1 (Homo sapiens, UniProt P15538); assay: V79-Human-CYP11B1 cell assay; assay type: cell-based; settings: V79 cells stably expressing human CYP11B1; 250 nM 11-deoxycortisol substrate; cortisol by HTRF
T1 construct: expressed in transfected cells; host or cells: V79 cells (clone V79-hCYP11B1-8CLC7)
T1 sequence (P15538 25-503): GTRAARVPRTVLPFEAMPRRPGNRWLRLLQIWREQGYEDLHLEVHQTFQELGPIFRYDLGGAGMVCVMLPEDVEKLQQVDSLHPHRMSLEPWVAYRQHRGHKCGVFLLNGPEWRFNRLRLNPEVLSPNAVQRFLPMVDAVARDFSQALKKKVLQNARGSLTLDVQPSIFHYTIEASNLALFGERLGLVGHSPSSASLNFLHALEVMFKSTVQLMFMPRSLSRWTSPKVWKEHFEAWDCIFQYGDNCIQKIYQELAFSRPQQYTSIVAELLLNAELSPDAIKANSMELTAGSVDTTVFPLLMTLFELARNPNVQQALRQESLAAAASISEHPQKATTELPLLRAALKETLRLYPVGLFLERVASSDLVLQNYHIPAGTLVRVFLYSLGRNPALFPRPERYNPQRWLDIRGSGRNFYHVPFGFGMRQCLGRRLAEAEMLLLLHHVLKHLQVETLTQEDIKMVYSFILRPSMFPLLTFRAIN
Method: (§1) Methods for V79-Human-CYP11B2 and V79-Human-CYP11B1 Assays: V79 cell lines stably expressing the either the human CYP11B2 or the human CYP11B1 enzyme were generated using a standard transfection protocol. V79 cells were transfected with plasmids pTriEx3-Hygro-hCyp11B2 or pTriEx3-Hygro-hCyp11B1 using Lipofectamine2000 reagent. […] Single cell clones were generated by […] in DMEM supplemented with 10% FBS and 400 μg/mL hygromycin until single colonies were obtained. […] The reaction was carried out for 3 hours at 37° C., 5% CO2 and was stopped by harvesting the supernatants. […] IC50s for the inhibitor were determined by plotting the amount of product formed against the concentration of inhibitor using sigmoidal dose-response curve (variable slope) fit in GraphPad.

human CYP11B2 = target: T2, human CYP11B2 (Homo sapiens, UniProt P19099); assay: V79-Human-CYP11B2 cell assay; assay type: cell-based; settings: V79 cells stably expressing human CYP11B2; 125 nM 11-deoxycorticosterone substrate; aldosterone by HTRF
T2 construct: expressed in transfected cells; host or cells: V79 cells (clone V79-hCYP11B2-CLE9)
T2 sequence (P19099 25-503): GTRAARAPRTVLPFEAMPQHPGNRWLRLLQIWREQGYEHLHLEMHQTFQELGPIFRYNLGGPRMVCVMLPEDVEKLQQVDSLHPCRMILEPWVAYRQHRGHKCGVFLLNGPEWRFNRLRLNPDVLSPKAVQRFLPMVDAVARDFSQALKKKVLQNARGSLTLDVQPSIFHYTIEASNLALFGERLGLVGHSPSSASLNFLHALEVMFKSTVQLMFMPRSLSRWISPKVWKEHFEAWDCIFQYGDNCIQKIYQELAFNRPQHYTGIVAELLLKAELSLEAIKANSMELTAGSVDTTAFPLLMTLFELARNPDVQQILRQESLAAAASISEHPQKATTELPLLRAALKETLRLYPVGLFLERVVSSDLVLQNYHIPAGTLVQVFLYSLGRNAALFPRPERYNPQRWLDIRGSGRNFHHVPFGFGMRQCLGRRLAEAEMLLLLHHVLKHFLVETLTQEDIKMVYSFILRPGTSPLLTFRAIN
Method: as §1

| IC50 (human CYP11B1) [nM] | IC50 (human CYP11B2) [nM] | Compound |
| --- | --- | --- |
| 1910 | 83 | Fc1ccc2c(cnn2-c2cncc(C(F)(F)F)c2)c1 [Example 6, 5-fluoro-1-(5-(trifluoromethyl)pyridin-3-yl)-1H-indazole] |
| 257 | 17 | Cc1nn(-c2cncc(C(F)(F)F)c2)c2cccc(F)c12 [Example 36, 4-fluoro-3-methyl-1-(5-(trifluoromethyl)pyridin-3-yl)-1H-indazole] |
| 1800 | 131 | CCc1c(F)cncc1-n1ncc2c(F)cccc21 [Example 42, 1-(4-ethyl-5-fluoropyridin-3-yl)-4-fluoro-1H-indazole] |
| 107 | 1.9 | Fc1cc2cnn(-c3cncc4ccccc34)c2cc1F [Example 46, 4-(5,6-difluoro-1H-indazol-1-yl)isoquinoline] |
| 305 | 23 | CC(C)(O)c1cncc(-n2ncc3cc(F)c(F)cc32)c1 [Example 54, 2-(5-(5,6-difluoro-1H-indazol-1-yl)pyridin-3-yl)propan-2-ol] |
| 36.4 | 1.2 | CC(C)(O)c1cncc(-n2ncc3cccc(F)c32)c1 [Example 68, 2-(5-(7-fluoro-1H-indazol-1-yl)pyridin-3-yl)propan-2-ol] |
| 498 | 7.7 | CC(O)(c1cncc(-n2ncc3c2CCCC3)c1)C(F)(F)F (centres unmarked) [Example 75] |
| 98 | 2.2 | C[C@](O)(c1cncc(-n2ncc3c(C(F)(F)F)cccc32)c1)C(F)(F)F [Example 85, (S)-1,1,1-trifluoro-2-(5-(4-(trifluoromethyl)-1H-indazol-1-yl)pyridin-3-yl)propan-2-ol] |
| 633 | 17.5 | CN(C)c1cncc(-n2ncc3c(Cl)cccc32)n1 [Example 88, 6-(4-chloro-1H-indazol-1-yl)-N,N-dimethylpyrazin-2-amine] |
| 31.5 | 1.6 | Clc1cccc2c1cnn2-c1cncc(N2CCC2)n1 [Example 90, 1-(6-azetidin-1-ylpyrazin-2-yl)-4-chloro-1H-indazole] |
